According to patent US20200079765A1, “SUBSTITUTED HETEROARYL PYRROLONES AND SALTS THEREOF AND USE THEREOF AS HERBICIDAL ACTIVE SUBSTANCES” (Bayer CropScience Aktiengesellschaft, priority 2016, published 2020):
Each block holds one molecule with its values, some of them ahead of it.

Assays:
Setaria viridis [1] = test: Herbicidal pre-emergence action (Experimental Part 2, D); type: in vivo; conditions: pre-emergence (Part 2), application rate 1280 g/ha, scored visually after about 3 weeks
Source text: (§1) Seeds of mono- and dicotyledonous weed plants were placed in plastic pots in sandy loam soil (doubly sown with in each case one species of mono- or dicotyledonous weed plants per pot) and covered with soil. The compounds of the invention, formulated in the form of wettable powders (WP) or as emulsion concentrates (EC), were then applied onto the surface of the covering soil as aqueous suspension or emulsion with addition of 0.5% additive at a water application rate of 600 liters per hectare (converted). After the treatment, the pots are placed in a greenhouse and kept under good growth conditions for the trial plants. After about 3 weeks, the effect of the preparations was scored visually in comparison with untreated controls as percentages. For example, 100% activity=the plants have died, 0% activity=like control plants. Tables D1 to D8 below show the effects of selected compounds of the general formula (I) according to Tables I.1 to I.116 on various harmful plants and an application rate corresponding to 1280 g/ha or 320 g/ha, which were obtained by the experimental procedure mentioned above.

Abutilon theophrasti [2] = test: as above; type: in vivo; conditions: pre-emergence (Part 2), application rate 1280 g/ha, scored visually after about 3 weeks
Source text: as §1

Amaranthus retroflexus [3] = test: as above; type: in vivo; conditions: pre-emergence (Part 2), scored visually after about 3 weeks
Source text: as §1

Stellaria media [4] = test: as above; type: in vivo; conditions: pre-emergence (Part 2), scored visually after about 3 weeks
Source text: as §1

Matricaria inodora [5] = test: as above; type: in vivo; conditions: pre-emergence (Part 2), scored visually after about 3 weeks
Source text: as §1

Poa annua [6] = test: as above; type: in vivo; conditions: pre-emergence (Part 2), scored visually after about 3 weeks
Source text: as §1

Abutilon theophrasti [7] = test: Herbicidal post-emergence action (Experimental Part 2, C); type: in vivo; conditions: post-emergence (Part 2), rated visually after about 3 weeks
Experimental: (§2) Seeds of mono- and dicotyledonous weed plants were placed in plastic pots in sandy loam soil (doubly sown with in each case one species of mono- or dicotyledonous weed plants per pot), covered with soil and cultivated in a greenhouse under controlled growth conditions. 2 to 3 weeks after sowing, the test plants were treated at the one-leaf stage. The compounds of the invention, formulated in the form of wettable powders (WP) or as emulsion concentrates (EC), were applied onto the green parts of the plants as aqueous suspension or emulsion with addition of 0.5% additive at a water application rate of 600 liters per hectare (converted). After the test plants had been kept in the greenhouse under optimum growth conditions for about 3 weeks, the activity of the preparations was rated visually in comparison to untreated controls. For example, 100% activity=the plants have died, 0% activity=like control plants. Tables C1 to C8 below show the effects of selected compounds of the general formula (I) according to Tables I.1 to I.116 on various harmful plants and an application rate corresponding to 1280 g/ha or 320 g/ha, which were obtained by the experimental procedure mentioned above.

Amaranthus retroflexus [8] = test: as above; type: in vivo; conditions: post-emergence (Part 2), rated visually after about 3 weeks
Experimental: as §2

Matricaria inodora [9] = test: as above; type: in vivo; conditions: post-emergence (Part 2), rated visually after about 3 weeks
Experimental: as §2

photosystem II (PS II) = molecular target: T1, photosystem II (PS II) (Spinacia oleracea, UniProt P69560); test: Measurement of the PS II activity in thylakoid membranes (DCPIP reduction, Experimental Part 3, Table E1); type: biochemical; conditions: spinach thylakoid membranes
T1 construct: the chloroplasts were osmotically ruptured and the thylakoid membranes were then obtained by centrifugation; from tissue; host or cells: thylakoid membranes from fresh spinach leaves
Experimental: Cooled fresh spinach leaves were comminuted and homogenized in 50 mM phosphate buffer, pH 6.8. 10 mM KCl, 0.34 M sucrose (sucrose buffer) (blender, 1 g of plant material/ml). The homogenate was subsequently filtered through 4 layers of Miracloth and the chloroplasts were isolated by centrifugation, i.e. 10 min of centrifugation at 4400×g (4° C.). The sediment was suspended in 25 ml of sucrose buffer and re-centrifuged for 10 min at 4400×g (4° C.). The sediment was then suspended in 40 ml of 50 mM phosphate buffer, pH 6.8, 10 mM KCl, without sucrose. In this step, the chloroplasts were osmotically ruptured and the thylakoid membranes were then obtained by centrifugation (10 min, 4400×g, 4° C.). The membrane sediment was finally suspended in about 20 ml of 50 mM phosphate buffer, pH 6.8, 10 mM KCl. Following protein determination and activity determination, the membrane suspension was divided into aliquots and frozen in liquid nitrogen. The aliquots were stored at −80° C. Under these conditions, the photosystem II preparation was storage stable for at least three months. The activity determination of photosystem II (PS II) was then carried out using the following test principle: The electron transfer from PS II to an artificial electron acceptor, 2,6-dichlorophenolindophenol (DCPIP), was measured with exposure to light. The concentration of the blue oxidized form of DCPIP was determined spectrophotometrically at wavelength λ=595 nm. […] The activity determination was carried out in microtiter plates (96 cavities) in a reaction volume of 200 μl. Here, 155 μl of dilute membrane suspension were initially charged in 50 mM of phosphate buffer, pH 6.8, 10 mM KCl. Depending on the activity of the PS II preparation, the dilution was adjusted such that the measurement of the decrease in absorption (λ=595 nm) was linear for at least 10 min. In each case 5 μl solution of the test compounds of a concentration of 100 μM in DMSO were added to the enzyme suspension; controls contained 5 μl DMSO; the final concentration of DMSO in the reaction batch was thus 2.5% (v/v); this concentration had no adverse effect on the enzymatic activity. On each microtiter plate, a known PS II inhibitor, for example metribuzin, was used as standard, which allowed the quality of the PS II test to be assessed. The reaction was started by addition of 40 μl DCPIP solution (600 μM in distilled water); the final concentration of DCPIP was 120 μM. Measurement of absorption was carried out over a period of 10 min at 22° C. and with exposure to light. Using metribuzin as comparative substance, the results for the efficacy of the compounds of the general formula (I) at 100 μM are stated in the table below using the following classification: ++++ (inhibition≥90%), +++ (90%>inhibition≥70%), ++ (70%>inhibition≥50%), + (50%>inhibition≥30%).
Effects of selected compounds of the general formula (I) according to the following table E1: […]

Lolium rigidum = test: Herbicidal pre-emergence action (Experimental Part 2, D); type: in vivo; conditions: pre-emergence (Part 2), application rate 1280 g/ha, scored visually after about 3 weeks
Source text: as §1

Stellaria media [10] = test: Herbicidal post-emergence action (Experimental Part 2, C); type: in vivo; conditions: post-emergence (Part 2), rated visually after about 3 weeks
Experimental: as §2

Poa annua [11] = test: as above; type: in vivo; conditions: post-emergence (Part 2), rated visually after about 3 weeks
Experimental: as §2

Amaranthus retroflexus [12] = test: Pre-emergence herbicidal action (Experimental Part 1, B); type: in vivo; conditions: application rate 1280 g/ha, scored visually after about 3 weeks
Source text: Seeds of monocotyledonous and dicotyledonous weed plants and crop plants were placed in plastic or organic planting pots and covered with soil. The compounds of the invention, formulated in the form of wettable powders (WP) or as emulsion concentrates (EC), were then applied onto the surface of the covering soil as aqueous suspension or emulsion with addition of 0.5% additive at a water application rate of 600 l/ha (converted). After the treatment, the pots were placed in a greenhouse and kept under good growth conditions for the test plants. After about 3 weeks, the effect of the preparations was scored visually in comparison with untreated controls as percentages. For example, 100% activity=the plants have died, 0% activity=like control plants. Tables B1 to B14 below show the effects of selected compounds of the general formula (I) according to Tables I.1 to I.116 on various harmful plants and an application rate corresponding to 1280 g/ha or 320 g/ha, which were obtained by the experimental procedure mentioned above.

Setaria viridis [13] = test: Herbicidal post-emergence action (Experimental Part 2, C); type: in vivo; conditions: post-emergence (Part 2), application rate 1280 g/ha, rated visually after about 3 weeks
Experimental: as §2

Compound: CC1=CC(=O)N(c2cc(C(C)C)no2)C1O (stereo not drawn) [I.1-289]
Setaria viridis, herbicidal activity (Setaria viridis [1]): 90%
Abutilon theophrasti, herbicidal activity (Abutilon theophrasti [2]): 100%
Amaranthus retroflexus, herbicidal activity (Amaranthus retroflexus [3]; application rate 1280 g/ha): 90%
Stellaria media, herbicidal activity (Stellaria media [4]; application rate 1280 g/ha): 100%
Matricaria inodora, herbicidal activity (Matricaria inodora [5]; application rate 1280 g/ha): 100%
Poa Annua, herbicidal activity (Poa annua [6]; application rate 1280 g/ha): 100%
Abutilon theophrasti, herbicidal activity (Abutilon theophrasti [7]; application rate 1280 g/ha): 100%
Amaranthus retroflexus, herbicidal activity (Amaranthus retroflexus [8]; application rate 320 g/ha): 100%
Matricaria inodora, herbicidal activity (Matricaria inodora [9]; application rate 1280 g/ha): 100%

Effect (inhibition of PS II activity) (photosystem II (PS II)): ++++ (inhibition≥90%)
Compound: CC1=CC(=O)N(c2cc(C(F)(F)F)ccn2)C1O (stereo not drawn) [I.1-449]

Compound: CCC(=O)OC1C(C)=CC(=O)N1c1cc(C(C)(C)C)no1 (stereo not drawn) [I.5-290]
Setaria viridis, herbicidal activity (Setaria viridis [1]): 90%
Abutilon theophrasti, herbicidal activity (Abutilon theophrasti [2]): 100%
Lolium rigidum, herbicidal activity (Lolium rigidum): 90%
Stellaria media, herbicidal activity (Stellaria media [4]; application rate 320 g/ha): 100%
Matricaria inodora, herbicidal activity (Matricaria inodora [5]; application rate 320 g/ha): 100%
Poa Annua, herbicidal activity (Poa annua [6]; application rate 320 g/ha): 90%
Abutilon theophrasti, herbicidal activity (Abutilon theophrasti [7]; application rate 1280 g/ha): 100%
Stellaria media, herbicidal activity (Stellaria media [10]; application rate 1280 g/ha): 100%
Matricaria inodora, herbicidal activity (Matricaria inodora [9]; application rate 1280 g/ha): 100%

Compound: CC(=O)OC1C(C)=CC(=O)N1c1cc(C(C)(C)C)no1 (stereo not drawn) [I.3-290]
Setaria viridis, herbicidal activity (Setaria viridis [1]): 90%
Abutilon theophrasti, herbicidal activity (Abutilon theophrasti [2]): 100%
Amaranthus retroflexus, herbicidal activity (Amaranthus retroflexus [3]; application rate 1280 g/ha): 90%
Stellaria media, herbicidal activity (Stellaria media [4]; application rate 1280 g/ha): 100%
Matricaria inodora, herbicidal activity (Matricaria inodora [5]; application rate 1280 g/ha): 100%
Poa Annua, herbicidal activity (Poa annua [6]; application rate 1280 g/ha): 90%
Abutilon theophrasti, herbicidal activity (Abutilon theophrasti [7]; application rate 1280 g/ha): 100%
Matricaria inodora, herbicidal activity (Matricaria inodora [9]; application rate 1280 g/ha): 90%
Poa Annua, herbicidal activity (Poa annua [11]; application rate 1280 g/ha): 100%
Amaranthus retroflexus, herbicidal activity (Amaranthus retroflexus [12]): 90%

Effect (inhibition of PS II activity) (photosystem II (PS II)): ++++ (inhibition≥90%)
Compound: CC1=CC(O)N(c2cc(-c3ccccc3)ns2)C1=O (stereo not drawn) [I.2-86]

Compound: CC1=CC(=O)N(c2cscn2)C1O (stereo not drawn) [I.1-91]
Abutilon theophrasti, herbicidal activity (Abutilon theophrasti [2]): 100%
Amaranthus retroflexus, herbicidal activity (Amaranthus retroflexus [3]; application rate 320 g/ha): 100%
Matricaria inodora, herbicidal activity (Matricaria inodora [5]; application rate 1280 g/ha): 90%
Setaria viridis, herbicidal activity (Setaria viridis [13]): 100%
Abutilon theophrasti, herbicidal activity (Abutilon theophrasti [7]; application rate 1280 g/ha): 100%
Amaranthus retroflexus, herbicidal activity (Amaranthus retroflexus [8]; application rate 320 g/ha): 100%
Stellaria media, herbicidal activity (Stellaria media [10]; application rate 1280 g/ha): 100%
Matricaria inodora, herbicidal activity (Matricaria inodora [9]; application rate 1280 g/ha): 100%

Effect (inhibition of PS II activity) (photosystem II (PS II)): +++ (90%>inhibition≥70%)
Compound: CC(=O)OC1C(C)=CC(=O)N1c1cc(C(F)(F)F)c(Cl)cn1 (stereo not drawn) [I.3-451]
Setaria viridis, herbicidal activity (Setaria viridis [1]): 100%
Lolium rigidum, herbicidal activity (Lolium rigidum): 90%
Stellaria media, herbicidal activity (Stellaria media [4]; application rate 320 g/ha): 100%
Poa Annua, herbicidal activity (Poa annua [6]; application rate 320 g/ha): 90%
Abutilon theophrasti, herbicidal activity (Abutilon theophrasti [7]; application rate 320 g/ha): 100%
Amaranthus retroflexus, herbicidal activity (Amaranthus retroflexus [8]; application rate 1280 g/ha): 100%
Stellaria media, herbicidal activity (Stellaria media [10]; application rate 320 g/ha): 100%
Matricaria inodora, herbicidal activity (Matricaria inodora [9]; application rate 320 g/ha): 90%
Poa Annua, herbicidal activity (Poa annua [11]; application rate 320 g/ha): 100%
